# Data: US20050164306A1, “Methods for screening for a compound useful in the treatment or prevention of lymphocytic disorders, for inhibiting lymphocite activity and preventing or treating lymphocytic disorders” (priority 2002, published 2005)
# “Also recorded” adds a separate entry of the source. Like-named read-outs stand apart in the source and are kept apart here.
# Experiments:
# [1] = test system: human peripheral blood lymphocytes (PBL); test: Mitogen stimulation and proliferation assay (3H-thymidine uptake); format: cell-based; details: for lymphocytic activity including proliferation and humoral response (in words): normal T lymphocyte
# Procedure: A thymidine uptake assay was used to evaluate the effect of […] inhibitors on the proliferative activity of normal lymphocytes. Cell suspensions of fresh human peripheral blood lymphocytes (PBL) were resuspended in RPMITM 1640 medium supplemented with 10% foetal bovine serum at a concentration of 2×10^6/ml. Aliquots of […] were plated on a […] (96-well) and stimulated with 10 ug/ml of (Con-A) or 40 ug/ml of (LPSTM) at a final volume of 0.2 ml/well. ConATM and LPSTM were used to stimulate preferentially T cells and B cells, respectively. […] After an additional a 4 h incubation at 37° C., cells were collected with a cell harvester and ^3H thymidine incorporation was measured in triplicate samples by liquid scintillation counting.
# NTPDase [2] = test: NTPDase assay on intact human peripheral blood lymphocytes (PBL); format: biochemical
# Procedure: Human lymphocytes were obtained from peripheral venous blood of normal and healthy medication-free volunteers. Fresh blood collected in EDTA glass tubes was layered into Histopaque™-1077 (a solution of Ficoll™ and sodium diatrizoate adjusted to a density of 1.077, Sigma, USA) and centrifuged at 400 g for exactly 30 min, at room temperature. During centrifugation, erythrocytes and granulocytes were aggregated by Ficoll™ and rapidly sedimented, whereas lymphocytes remained at the plasma interface. Plasma (the upper layer) was carefully removed to prevent disturbance of the buffy coat. The latter fraction rich in lymphocytes was recovered with a pasteur pipette and washed twice with RPMI™ 1640 medium by centrifugation, for 10 min, at 250×g. The final pellet was suspended in fresh RPMI™ 1640 medium supplemented with 2 mM L-glutamine, 10% foetal bovine serum inactivated at 56° C. for 30 min, and antibiotics: penicillin […], streptomucin 100 ug/ml and amphotericin 2.5 ug/ml. Cells were counted with the hemacytometer. […] The cell preparation named PBL (for peripheral blood lymphocyte) was immediately used for NTPDase assays and for mitogenic responses to stimulators.
# Prior to the assays, human normal lymphocytes as well as leukemic cell lines, were washed three times with phosphate-free saline in 95 mM NaCl, 1 mM CaCl2, 2 mM MgCl2 and 45 mM Tris —HCl buffer (pH 7.4). Enzyme assays were carried out at 37° C. in 1 ml of the following assay medium: 95 mM NaCl, 5 mM KCl, 1 mM CaCl2, 2 mM MgCl2, 5 mM glucose, 0.05% BSA, 5 mM tetramisole and 45 mM Tris-HCl (pH 7.5). The reaction was started by adding the substrate (200 uM of ATP or ADP) and stopped with 250 ul of the Malachite green reagent. Controls were run with the enzyme added after the Malachite green reagent. Where indicated, 10 mM sodium azide (NaN3) or 1 mM, 5 mM and 10 mM of BGO 136 were added directly to the assay mixture. Inorganic phosphate was estimated according to Baykov et al.^(1) and enzyme activity was either expressed as nmoles of Pi released/min/mg of protein which corresponds to mUnits^(2) or as nmoles Pi/min/10^6 cells. Where indicated, lymphoid cells were lysed by three freeze thaw cycles in saline buffer and protein was measured with the method of Bradford using bovine serum albumin as a standard (3).
# Jurkat cells = test: Cell growth and proliferation of Jurkat cell lines; format: cell-based, human; details: inhibitor added at day 0; cell counts on day 5
# Procedure: T cell Jurkat is an acute T cell leukemia obtained from the peripheral blood of human. It was purchassed from ATCC and was grown and maintained in RPMI™. 1640 medium containing 10% FBS, 2 mM L-glutamine adjusted to contain 1.5 g/L sodium bicarbonate, 4.5 g/L glucose, 10 mM HEPES and 1.0 mM sodium pyruvate. To evaluate the effect of the different inhibitors of NTPDases on the growth of Jurkat cells, BGO 136, erythrosin, 8 Bus ATP, AMP and β-γ-Me ATP were added in the RPMI™ 1640 medium in presence of cells at day=0. Cells counts and viability of cells were determined on day=5.
# mice [3] = test: Graft vs. host reaction, spleen weight after cell transplant (Bundick model); format: in vivo; details: for splenomegaly: spleen weighed 21 days after injection of parents' spleen cells; for suppression %: suppression of splenomegaly, no treatment = 100, positive = 0
# Procedure: Mice were injected their parents' spleen cells. 21 days later, their spleen was weighed. Activation of Th2 (T helper cells) cells. The treatment groups are cyclosporin, BGO, and AMP. […] The “No treatment group” is constituted of normal mice. The “positive” group is constituted of mice having undergone spleen tissue transplantation and having been injected with the carrier only (PBS™) without inhibitor. […] The spleen of all mice was then removed and weighed. The weigh of treated mice was then compared with that of the “No treatment” mice.
# mice [4] = test: In vivo antibody production assay (humoral response to BSA, ELISA)
# Procedure: Immunity mice were primed with antigen by an intraperitoneal injection of BSA as a T-dependent antigen. Briefly, BSA was resuspended in PBS (pH 7.2) and emulsified in the same volume of complete Freund's adjuvant (CFA). 30 ug BSA in […] PBS was given to each mouse. Four groups of ten mice were immunized. • Group 1: mice were injected i.p. with BSA alone with emulsified in (CFA) Group: Ag. • Group 2: mice were injected i.p. with BSA plus BGO 136 (400 mM) in […] PBS, emulsified in (CFA) or erythrosin B (0.25 g/Kg) • Group 3: mice were injected i.p. with BSA plus BGO 136 (800 mM) in […] PBS, emulsified in (CFA) or erythrosin B (0.5 g/Kg) • Group 4: mice were treated with BSA in presence of the inhibitor emulsified in (CFA). These mice received various i.p. doses of BGO 136 400 mM in 0.1 ml of normal PBS or erythrosin B 0.25 g/Kg, 2 doses/week are given as a maintenance dose. (group named DM=maintenance dose)
# These initial immunizations (i.p.) were followed by two subsequent immunizations with emulsions of BSA alone or in presence of BGO136 400 mM or 800 mM, in incomplete Freund's adjuvant. Five days after each immunization, blood was collected from each animal, sera was analysed by an ELISA assay.
# Flat-bottomed microtiter plate were coated with BSA (5 ug/ml) in NaHCO3/Na2CO3 50 mM (pH 9.6) at 37° C. for 2 h. Plates were washed three times with (PBS buffer, pH 7.4, 0.5 ml/L Tween-20) and then blocked with 400 ul of milk per well overnight, at 4° C. Diluted sera specimens were added (100 ul/well) and incubated for 2 h at 37° C. After thorough washing, wells were incubated with 100 ul of goat-anti-mouse IgG conjugated with peroxydase for 2 h at 37° C. followed by several washes. TMB substrate solution (100 ul/well), (42 mM TMB in DMSO, 0.1 M citric acid, Na2HPO4 0.2 M and H2O2 30%) was added. Color development was allowed to proceed for approximately 15 to 30 min, at room temperature. Reaction was terminated by adding 30 ul of 4N H2SO4. Optical density was read at 450 nm.
# NTPDase [5] = details: ATP and ADP as substrate; read-out: Ki (mixed type of inhibition); cited from earlier work
SMILES,lymphocytic activity including proliferation and humoral response (in words) [1],effect on NTPDase activity (in words) (NTPDase [2]),proliferation induced by ConA (in words) ([1]; ConA-stimulated PBL),Jurkat cell proliferation (in words) (Jurkat cells),splenomegaly (mice [3]),suppression % (mice [3]) [%],other results
CCCCSc1nc2c(N)ncnc2n1[C@@H]1O[C@H](COP(=O)(O)O)C(O)[C@@H]1O (stereo partly drawn) [8 BUS-AMP],decrease,pronounced dose-dependent inhibition,–,–,–,–,effect on NTPDase activity (in words) (NTPDase [2]; listed as 8 Bus AMP): decrease the NTPDase activity
CCCCSc1nc2c(N)ncnc2n1C1OC(COP(=O)(O)OP(=O)(O)OP(=O)(O)O)C(O)C1O (stereo not drawn) [8 BUS-ATP],decrease,decrease the NTPDase activity,reduced cell proliferation,marked reduction of cell proliferation,–,–,–
"Nc1ncnc2c1ncn2[C@@H]1O[C@H](COP(=O)(O)O)[C@@H](O)[C@H]1O [AMP, adenosine 5′-monophosphate]",–,–,–,marked reduction of cell proliferation,6.7 ± 0.82 mg/g of b. weight,8,–
"O=S(=O)(O)c1ccc2c(O)cc(S(=O)(=O)O)cc2c1 [BGO 136, 1-hydroxynaphtalene-3,6 disulfonic acid]",decrease,decrease the NTPDase activity; also recorded: dose-dependent inhibition,inhibited in a dose-dependent manner,marked reduction of cell proliferation,4.3 ± 0.29 mg/g of b. weight,56,"tolerance: toxic or allergic reactions (mice [4]; during administration (two months)): No toxic or allergic reactions were observed; effect on levels of albumin antibodies (in words) (mice [4]; repeated injections (group DM) versus single dose): even more efficient; reduction of levels of albumin antibodies (mice [4]; single dose 800 mM i.p.): ≤ 50%; proliferation induced by ConA, percent of the positive control values ([1]; ConA-stimulated PBL, 10 mM): about 10%; inhibition of LPS-induced proliferation (in words) ([1]; LPS-stimulated PBL): much less pronounced; proliferation of non-activated lymphocytes (3H-Thymidine incorporation in DNA) ([1]; unstimulated PBL): did not affect; efficiency in preventing spleen growth following transplantation, versus cyclosporine (mice [3]): more efficient than cyclosporine; transplanted spleens versus positive control mice (in words) (mice [3]; ANOVA): significantly smaller; inhibition of ATPase and ADPase activities (NTPDase [2]; 5 mM): 40%; inhibition of ATPase and ADPase activities (NTPDase [2]; 10 mM): ≥ 50%; Ki (NTPDase [5]): 380 µM"
O.O=C([O-])c1ccccc1-c1c2cc(I)c(=O)c(I)c-2oc2c(I)c([O-])c(I)cc12.[Na+].[Na+] [erythrosin B],decrease,dose-dependent inhibition; also recorded: decrease the NTPDase activity,dose-dependent inhibition,marked reduction of cell proliferation,–,–,levels of antibodies to albumin (in words) (mice [4]; especially with multiple injections (group DM)): significant decrease
"Nc1ncnc2c1ncn2[C@@H]1O[C@H](COP(=O)(O)OP(=O)(O)CP(=O)(O)O)[C@@H](O)[C@H]1O [β-γ-Me ATP, beta-gamma methylene ATP]",decrease,inhibited in a dose-dependent manner; also recorded: decrease the NTPDase activity,reduced cell proliferation,less pronounced but significant effect,–,–,–
